Series [1] is described as follows: Blood insulin response (insulinemic index, II) after consumption, randomized cross over analysis. The settings on record: ten healthy subjects, 25 g carbohydrate and 250 ml water, 0 to 180 minutes. The format is in vivo, human. As for the experimental part: (§1) The effect of trehalulose on the blood glucose response (glycemic index, GI) and the insulin response (insulinemic index, II) was examined in comparison to isomaltulose. The analysis was done as a randomized cross over analysis on ten healthy subjects of both sex. Blood glucose- and insulin-profiles were taken after consumption of isomaltulose or trehalulose (each 25 g carbohydrate and 250 ml water) for an interval of 0 to 180 minutes at the following time points 0, 15, 30, 45, 60, 90, 120, 150 and 180 minutes.

Series [2] in a line: Stability of trehalulose during preparation (cooking) of jellies. The format is physicochemical. Conditions: when cooking the jellies. Here is the method:
In the following, four recipes for jellies using as sweeteners a mixture of sucrose and glucose and four recipes using the trehalulose-containing composition, that means vitalose, of the present invention are prepared. The jellies prepared were tested comparatively in storage and TPA-analysis.
In all of the jelly recipes the conventional sweetener combination of sucrose and glucose could be successfully replaced by the trehalulose-containing composition, that means vitalose, of the present invention. The preparation using the trehalulose-containing composition, that means vitalose, was exactly as for the sucrose/glucose compositions.

The nature of series [3]: Blood glucose response (glycemic index, GI) after consumption, randomized cross over analysis. Conditions: ten healthy subjects, 25 g carbohydrate and 250 ml water, 0 to 180 minutes, compared to isomaltulose. The format is in vivo, human. As for the experimental part: as §1

We go through two compounds from patent US9707249B2, “Trehalulose-containing composition, its preparation and use” (SÜDZUCKER AKTIENGESELLSCHAFT MANNHEIM/OCHSENFURT, priority 2009, dated 2017).

Regarding `O=C(CO)[C@@H](O)[C@H](O)[C@H](O)CO[C@H]1O[C@H](CO)[C@@H](O)[C@H](O)[C@H]1O` [isomaltulose, 6-O-α-D-glucopyranosyl-D-fructose, reference compound], the “insulin response (II), blood insulin level” value in series [1] is given as “in parallel to the blood glucose response”.
Regarding `O=C(CO[C@H]1O[C@H](CO)[C@@H](O)[C@H](O)[C@H]1O)[C@@H](O)[C@H](O)[C@H](O)CO` [trehalulose, 1-O-α-D-glucopyranosyl-D-fructose], in series [2], the degradation during preparation result was “no degradation of trehalulose was observed”. The “blood glucose response (GI), blood glucose level” value in series [3] was “increased and longer sustaining supply of glucose”. Further, in series [1], the “insulin response (II), blood insulin level” value is on record as “significantly lower insulin response (II) than isomaltulose”.
